Assay results as given in US11168073B2, “3,3-difluoroallylamines or salts thereof and pharmaceutical compositions comprising the same” (YUHAN CORPORATION, priority 2018, dated 2021).
Where a name gives a salt, the structure may show the parent alone. Read-outs that look alike come from different tables or passages of the source.

How the values were obtained:
Assay type in all cases: biochemical
[1] = biological target: T1, recombinant human MAO-B (monoamine oxidase-B) (Homo sapiens, UniProt P27338); assay: Activity evaluation on recombinant human MAO-B (Amplex Red/HRP-coupled assay, 1 mM benzylamine substrate); conditions: read-out: Inhibitory Activity (IC50, nM) MAO-B
T1 construct: purchased Sigma-Aldrich
T1 sequence (P27338 1-520): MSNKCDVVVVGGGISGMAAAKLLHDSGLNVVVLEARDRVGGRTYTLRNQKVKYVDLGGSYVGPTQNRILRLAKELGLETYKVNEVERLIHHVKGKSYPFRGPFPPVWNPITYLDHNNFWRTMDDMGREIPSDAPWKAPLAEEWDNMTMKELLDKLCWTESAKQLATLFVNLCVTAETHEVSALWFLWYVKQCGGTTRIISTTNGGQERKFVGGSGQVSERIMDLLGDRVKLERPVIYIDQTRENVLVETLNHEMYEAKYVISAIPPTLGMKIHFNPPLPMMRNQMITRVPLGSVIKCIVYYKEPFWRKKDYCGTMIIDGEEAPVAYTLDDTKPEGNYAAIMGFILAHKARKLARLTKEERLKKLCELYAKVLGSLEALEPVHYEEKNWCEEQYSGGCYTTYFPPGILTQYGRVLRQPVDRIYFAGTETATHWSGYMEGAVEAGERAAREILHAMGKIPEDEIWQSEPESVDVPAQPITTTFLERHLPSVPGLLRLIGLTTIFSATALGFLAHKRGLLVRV
Method in brief: (§1)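 Enzyme activity was measured as fluorescence rate (ex 544, em 590 nm) from resorufin formed by HRP-coupled H2O2 oxidation of 200 uM Amplex Red. Compounds were first incubated 30 min at 37 °C with enzyme at pH 7.4; substrates were 0.5 mM tyramine (MAO-A), 1 mM benzylamine (MAO-B) and 1 mM putrescine (DAO).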

[2] = biological target: T2, recombinant human MAO-A (monoamine oxidase-A) (Homo sapiens, UniProt P21397); assay: Activity evaluation on recombinant human MAO-A (Amplex Red/HRP-coupled assay, 0.5 mM tyramine substrate); conditions: read-out: Inhibitory Activity (IC50, nM) MAO-A
T2 construct: purchased Sigma-Aldrich
T2 sequence (P21397 1-527): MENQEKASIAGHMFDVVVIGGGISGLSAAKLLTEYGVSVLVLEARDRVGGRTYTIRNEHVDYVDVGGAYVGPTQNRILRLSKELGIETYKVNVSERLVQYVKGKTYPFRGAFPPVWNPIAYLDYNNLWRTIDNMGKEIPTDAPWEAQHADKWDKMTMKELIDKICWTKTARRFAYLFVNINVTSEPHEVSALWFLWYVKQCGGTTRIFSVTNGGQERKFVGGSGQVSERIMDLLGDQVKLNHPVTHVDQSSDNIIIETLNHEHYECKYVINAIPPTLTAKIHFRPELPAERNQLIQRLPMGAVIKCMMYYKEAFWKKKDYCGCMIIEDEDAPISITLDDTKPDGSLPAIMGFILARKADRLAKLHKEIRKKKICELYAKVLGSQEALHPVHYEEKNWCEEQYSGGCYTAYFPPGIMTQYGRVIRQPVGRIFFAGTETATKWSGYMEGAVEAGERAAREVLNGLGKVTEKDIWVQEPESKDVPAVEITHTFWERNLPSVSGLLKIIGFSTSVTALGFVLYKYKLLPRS
Method in brief: as §1

[3] = biological target: T3, recombinant human DAO (diamine oxidase) (Homo sapiens, UniProt P19801); assay: Activity evaluation on recombinant human DAO (Amplex Red/HRP-coupled assay, 1 mM putrescine substrate); conditions: read-out: Inhibitory Activity (IC50, nM) DAO
T3 construct: purchased R&D systems
T3 sequence (P19801 20-751): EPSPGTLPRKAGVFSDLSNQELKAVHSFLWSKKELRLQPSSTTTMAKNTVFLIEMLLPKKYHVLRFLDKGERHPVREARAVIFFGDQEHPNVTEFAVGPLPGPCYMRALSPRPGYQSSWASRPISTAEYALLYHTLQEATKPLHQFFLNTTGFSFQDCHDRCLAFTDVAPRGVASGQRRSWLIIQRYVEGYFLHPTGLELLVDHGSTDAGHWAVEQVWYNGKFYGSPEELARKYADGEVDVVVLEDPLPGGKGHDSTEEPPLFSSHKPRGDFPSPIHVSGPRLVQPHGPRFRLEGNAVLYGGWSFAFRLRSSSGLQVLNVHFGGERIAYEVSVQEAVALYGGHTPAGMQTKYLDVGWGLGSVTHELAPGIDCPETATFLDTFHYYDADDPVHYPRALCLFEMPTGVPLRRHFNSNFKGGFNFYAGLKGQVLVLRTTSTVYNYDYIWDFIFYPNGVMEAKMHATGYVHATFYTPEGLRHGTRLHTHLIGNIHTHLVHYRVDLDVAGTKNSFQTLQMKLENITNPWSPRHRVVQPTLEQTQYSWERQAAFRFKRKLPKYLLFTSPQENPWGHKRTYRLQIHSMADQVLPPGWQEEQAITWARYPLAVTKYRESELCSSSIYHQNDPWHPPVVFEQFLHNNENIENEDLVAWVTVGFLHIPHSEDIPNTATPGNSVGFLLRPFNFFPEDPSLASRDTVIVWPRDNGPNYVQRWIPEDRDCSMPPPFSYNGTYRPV
Method in brief: as §1

[4] = biological target: T4, recombinant human VAP-1 (Homo sapiens, UniProt Q16853); assay: Activity evaluation on recombinant human VAP-1 (Amplex Red/HRP-coupled hydrogen peroxide assay, benzylamine substrate); conditions: read-out: Inhibitory Activity (IC50, nM) human VAP-1
T4 construct: purchased R&D systems
T4 sequence (Q16853 1-763): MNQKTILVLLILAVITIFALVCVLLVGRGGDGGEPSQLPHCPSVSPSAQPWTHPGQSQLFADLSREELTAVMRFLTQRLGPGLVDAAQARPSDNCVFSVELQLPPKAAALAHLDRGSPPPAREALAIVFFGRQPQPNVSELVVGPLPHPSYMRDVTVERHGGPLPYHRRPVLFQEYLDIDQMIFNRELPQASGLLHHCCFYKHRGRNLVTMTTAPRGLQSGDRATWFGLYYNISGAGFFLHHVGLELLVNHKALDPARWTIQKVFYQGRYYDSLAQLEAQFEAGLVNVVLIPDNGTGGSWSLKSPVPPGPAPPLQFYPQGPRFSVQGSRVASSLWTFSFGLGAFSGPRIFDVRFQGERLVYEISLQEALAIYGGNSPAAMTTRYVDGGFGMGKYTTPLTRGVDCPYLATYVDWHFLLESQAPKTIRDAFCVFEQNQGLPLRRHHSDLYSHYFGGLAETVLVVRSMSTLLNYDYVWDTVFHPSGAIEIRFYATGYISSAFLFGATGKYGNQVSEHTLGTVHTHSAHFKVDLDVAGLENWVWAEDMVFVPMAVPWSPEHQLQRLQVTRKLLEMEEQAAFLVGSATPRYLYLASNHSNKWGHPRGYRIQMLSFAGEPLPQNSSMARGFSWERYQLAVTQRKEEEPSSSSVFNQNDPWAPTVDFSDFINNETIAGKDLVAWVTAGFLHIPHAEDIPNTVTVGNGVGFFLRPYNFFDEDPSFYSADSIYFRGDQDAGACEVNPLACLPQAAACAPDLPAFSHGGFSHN
Method in brief: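 Recombinant human VAP-1 in 50 mM sodium phosphate pH 7.4 preincubated 30 min at 37 °C with compound (8-point 1:3 series, <1% DMSO), then 1 mM benzylamine, 200 uM Amplex Red, 1 U/mL HRP added. H2O2-derived resorufin fluorescence (ex 544/em 590) followed 1–2 h; IC50 from four-parameter fit of rate inhibition.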

[5] = recombinant human VAP-1, 30 min preincubation at 37° C., 1 mM benzylamine
[6] = recombinant human VAP-1, benzylamine substrate

SMILES | IC50 ([1]; 1 mM benzylamine) | IC50 ([2]; 0.5 mM tyramine) | IC50 ([3]; 1 mM putrescine) | IC50 [4, 5] | IC50 ([1]; 1 mM benzylamine substrate) | IC50 ([2]; 0.5 mM tyramine substrate) | IC50 ([3]; 1 mM putrescine substrate) | IC50 [4, 6]
Cc1cc(-c2cc(C)c3c(c2)CCC(=O)N3)cnc1-n1cnn(CC(CN)=C(F)F)c1=O [Example 73, 6-[6-[1-[2-(aminomethyl)-3,3-difluoro-allyl]-5-oxo-1,2,4-triazol-4-yl]-5-methyl-3-pyridyl]-8-methyl-3,4-dihydro-1H-quinolin-2-one Trifluoroacetate] | 7200 nM | > 100000 nM | 6100 nM | 0.3 nM | – | – | – | –
NCC(Cn1ncn(Cc2cccc(-c3ccc4c(c3)OCO4)c2)c1=O)=C(F)F [Example 274, 2-[2-(aminomethyl)-3,3-difluoro-allyl]-4-[[3-(1,3-benzodioxol-5-yl)phenyl]methyl]-1,2,4-triazol-3-one Trifluoroacetate] | – | – | – | – | 125 nM | > 100000 nM | 54100 nM | 3.1 nM
Cn1cc(C#Cc2ccc(Cn3cnn(CC(CN)=C(F)F)c3=O)s2)cn1 [Example 171, 2-[2-(aminomethyl)-3,3-difluoro-allyl]-4-[[5-[2-(1-methylpyrazol-4-yl)ethynyl]-2-thienyl]methyl]-1,2,4-triazol-3-one Trifluoroacetate] | 50000 nM | > 100000 nM | > 100000 nM | 1.8 nM | – | – | – | –
NCC(Cn1ncn(Cc2ccc(-c3ccc(C(F)(F)F)nc3)s2)c1=O)=C(F)F [Example 111, 2-[2-(aminomethyl)-3,3-difluoro-allyl]-4-[[5-[6-(trifluoromethyl)-3-pyridyl]-2-thienyl]methyl]-1,2,4-triazol-3-one Trifluoroacetate] | 9400 nM | > 100000 nM | 7200 nM | 0.4 nM | – | – | – | –
CCn1cc(-c2cccc(-n3cnn(CC(CN)=C(F)F)c3=O)n2)cn1 [Example 53, 2-[2-(aminomethyl)-3,3-difluoro-allyl]-4-[6-(1-ethylpyrazol-4-yl)-2-pyridyl]-1,2,4-triazol-3-one Trifluoroacetate] | > 100000 nM | > 100000 nM | 1710 nM | 1.3 nM | – | – | – | –
CN1C(=O)COc2cc(-c3ccc(Cn4cnn(CC(CN)=C(F)F)c4=O)s3)ccc21 [Example 144, 7-[5-[[1-[2-(aminomethyl)-3,3-difluoro-allyl]-5-oxo-1,2,4-triazol-4-yl]methyl]-2-thienyl]-4-methyl-1,4-benzoxazin-3-one Trifluoroacetate] | > 100000 nM | > 100000 nM | > 10000 nM | 0.7 nM | – | – | – | –
NCC(Cn1ncn(Cc2ccc(-c3ccc4c(c3)OCO4)s2)c1=O)=C(F)F [Example 126, 2-[2-(aminomethyl)-3,3-difluoro-allyl]-4-[[5-(1,3-benzodioxol-5-yl)-2-thienyl]methyl]-1,2,4-triazol-3-one Trifluoroacetate] | 760 nM | > 100000 nM | > 100000 nM | 0.5 nM | – | – | – | –
CS(=O)(=O)c1ccc(-c2ccc(Cn3cnn(CC(CN)=C(F)F)c3=O)s2)cc1 [Example 101, 2-[2-(aminomethyl)-3,3-difluoro-allyl]-4-[[5-(4-methylsulfonylphenyl)-2-thienyl]methyl]-1,2,4-triazol-3-one Trifluoroacetate] | 67000 nM | > 100000 nM | 21000 nM | 0.3 nM | – | – | – | –
NCC(Cn1ncn(-c2cccc(-c3ccc(C(=O)N4CCOCC4)cc3)n2)c1=O)=C(F)F [Example 214, 2-[2-(aminomethyl)-3,3-difluoro-allyl]-4-[6-[4-(morpholine-4-carbonyl)phenyl]-2-pyridyl]-1,2,4-triazol-3-one Trifluoroacetate] | – | – | – | – | > 100000 nM | > 100000 nM | 940 nM | 1.7 nM
NCC(Cn1ncn(Cc2cc3ccc(-c4ccc(C(F)(F)F)nc4)cc3s2)c1=O)=C(F)F [Example 199, 2-[2-(aminomethyl)-3,3-difluoro-allyl]-4-[[6-[6-(trifluoromethyl)-3-pyridyl]benzothiophen-2-yl]methyl]-1,2,4-triazol-3-one Trifluoroacetate] | – | – | – | – | 1100 nM | > 100000 nM | 15000 nM | 1.7 nM
Cc1cc(C#Cc2cnc3c(c2)NCCO3)cnc1-n1cnn(CC(CN)=C(F)F)c1=O [Example 244, 2-[2-(aminomethyl)-3,3-difluoro-allyl]-4-[5-[2-(2,3-dihydro-1H-pyrido[2,3-b][1,4]oxazin-7-yl)ethynyl]-3-methyl-2-pyridyl]-1,2,4-triazol-3-one ditrifluoroacetate] | – | – | – | – | 37000 nM | > 100000 nM | 9000 nM | 0.8 nM
CN(C)c1ccc(-c2ccc(-n3cnn(CC(CN)=C(F)F)c3=O)cn2)cn1 [Example 41, 2-[2-(aminomethyl)-3,3-difluoro-allyl]-4-[6-[6-(dimethylamino)-3-pyridyl]-3-pyridyl]-1,2,4-triazol-3-one Trifluoroacetate] | 470 nM | > 100000 nM | 120 nM | 0.2 nM | – | – | – | –
